Measured values: patent publication US20210308108A1, “ACTIVATING PYRUVATE KINASE R” (FORMA Therapeutics, Inc., priority 2018, published 2021)

How the values were obtained:
Assay type in all cases: biochemical
wt-PKR [1] = molecular target: T1, wt-PKR (Homo sapiens, UniProt P30613); assay: Enzyme assay, activation at different compound concentrations (rate of ATP formation); conditions: PEP concentrations at or below Km
PKR-R510Q [2] = molecular target: T2, PKR-R510Q (Homo sapiens, UniProt P30613, R510Q); assay: as above; conditions: PEP concentrations at or below Km
T2 sequence (P30613 whole entry R510Q): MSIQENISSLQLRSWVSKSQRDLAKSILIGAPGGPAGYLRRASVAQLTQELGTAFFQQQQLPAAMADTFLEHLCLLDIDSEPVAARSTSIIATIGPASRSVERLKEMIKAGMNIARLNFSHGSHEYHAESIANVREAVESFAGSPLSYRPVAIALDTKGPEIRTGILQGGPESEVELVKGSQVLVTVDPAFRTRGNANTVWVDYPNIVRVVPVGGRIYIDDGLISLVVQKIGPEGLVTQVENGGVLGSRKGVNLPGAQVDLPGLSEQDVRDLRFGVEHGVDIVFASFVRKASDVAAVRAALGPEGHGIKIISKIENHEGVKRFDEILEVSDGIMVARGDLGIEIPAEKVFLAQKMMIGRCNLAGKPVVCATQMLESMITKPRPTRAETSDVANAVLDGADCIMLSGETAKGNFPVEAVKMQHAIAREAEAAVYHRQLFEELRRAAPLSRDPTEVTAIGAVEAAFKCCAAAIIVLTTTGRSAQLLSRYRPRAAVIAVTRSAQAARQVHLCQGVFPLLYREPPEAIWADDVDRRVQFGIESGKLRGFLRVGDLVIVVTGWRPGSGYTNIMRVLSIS

wt-PKR [3] = molecular target: T1, wt-PKR; assay: Enzyme assay, kinetic parameters (Vmax, PEP Km)
Experimental: (§1) Tests were conducted in the presence and absence of fructose-1,6-bisphosphate (FBP), a known allosteric activator of PKR.

PKR-R510Q [4] = molecular target: T2, PKR-R510Q; assay: Enzyme assay, kinetic parameters (Vmax, PEP Km)
Experimental: as §1

[5] = 2 μM Compound 1, in the presence or absence of FBP
[6] = 2 μM Compound 1, presence and absence of FBP

T1 sequence (P30613 whole entry): as the sequence (P30613 whole entry R510Q) above, with Q510R counted along it

With O=C([C@H](CO)c1ccccc1)N1CC2=C(C1)CN(S(=O)(=O)c1cnc3c(c1)OCCO3)C2 (single isomer, unassigned) [Compound 1] as the compound, how does the “Maximum-fold Activation” value (wt-PKR [1]) read?
The value was less than 2.0 fold.

What about the “Maximum-fold Activation” value (PKR-R510Q [2]) of the same compound?
Its value is less than 3.0 fold.

What about the “reduction of PEP Km” value (wt-PKR [3]; [5]) of the same compound?
The value was roughly 2 fold.

And the “effect on Vmax” value (wt-PKR [3]; [6])?
The value was “no effect to a modest increase”.

What about the “reduction of PEP Km” value (PKR-R510Q [4]; [5]) of the same compound?
The value was roughly 2 fold.

What about the “effect on Vmax” value (PKR-R510Q [4]; [6]) of the same compound?
The value was “no effect to a modest increase”.
